In patent US11634447B2 (priority 2012, dated 2023) one finds Kd data, which are given here for 17 compounds.

Each structure is given as a SMILES string. Several values for one entry are separate records, joined by “and”; a condition that tells them apart may be missing. Identical values can stand only once. Where only a bound is given, the exact number is not on record here.

For one assay, the target named is T1, FimH-CRD (Escherichia coli, UniProt P08191).
T1 construct: The first 177 amino acids of the FimH protein are expressed as a fusion protein; thrombin tag (printed as 'fusion protein with thrombin') (cleaved yes); made in house; host or cells: bacteria (pET21b plasmid)
T1 sequence (P08191 22-177): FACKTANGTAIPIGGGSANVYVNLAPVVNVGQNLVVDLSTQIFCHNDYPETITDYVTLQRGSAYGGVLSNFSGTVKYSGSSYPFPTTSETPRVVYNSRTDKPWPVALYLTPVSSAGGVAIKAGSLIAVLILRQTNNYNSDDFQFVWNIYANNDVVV
Briefly: Competitive binding assay by fluorescence polarization, assay 1 (compounds prepared by manual dilution). Also on record: species or system E. coli. To be noted: Assay 1 Kd, 5 nM Alexa 647 mannoside probe, 60 nM FimH-CRD, replicate values in one cell. Here is the method: The first 177 amino acids of the FimH protein are expressed as a fusion protein with thrombin in a pET21b plasmid in bacteria. This FimH protein sequence contains the carbohydrate recognition domain (CRD) and shall be termed FimH-CRD. Following bacterial expression of the protein, the FimH-CRD protein is purified to homogeneity and the thrombin tag removed by protease cleavage. A competitive binding assay by fluorescence polarization is performed using 5 nM of the Alexa 647 mannoside probe and 60 nM of the FimH-CRD. The samples are assayed in a low volume 384 well microtiter plate in a final volume of 20 μl. The final assay buffer conditions are the following, 50 mM Tris-Cl, ph 7.0, 100 mM NaCl, 1 mM EDTA, 5 mM β-mercaptoethanol, 0.05% BSA and 2.5% DMSO. Two assays are performed for FimH, termed assay 1 or assay 2. The assay conditions are the same for both assays except the following: assay 1 has compounds prepared by manual dilution in a serial dilution factor with 12-point dose response while assay 2 has compounds prepared by a robotics system also through a serial dilution factor (12 point dose response) and initially prepared in duplicate in 384 well-Corning polypropylene round bottom plates. The assay 2 plates have compound which is then frozen and must be thawed prior to use. Initially the Alexa 647 probe and the FimH-CRD are added to the assay buffer and then 0.5 μl of test compound (assay 1 or 2) between 0.4 nM to 75 μM final concentration are added (12 point titration with 3-fold serial dilution). Control wells for the Alexa 647 probe are prepared with the same conditions except for the addition of the FimH-CRD protein. Plates are then incubated for 5 hrs at room temperature in the dark and under humid conditions to prevent drying. Plates are read using the SpectraMax Paradigm multi-mode plate reader and the appropriate fluorescent polarization detection cartridge (Alexa-647).
Alexa 647 mannoside probe is prepared using the similar procedure reported for FAM mannoside (Han, Z. et. al., 2010, J. Med. Chem., 53, 4779) and is described in the scheme below.
To a blue colored stirred solution of (2S,3S,4S,5S,6R)-2-(4-aminobutoxy)-6-(hydroxymethyl)tetrahydropyran-3,4,5-triol (2.21 mg, 0.009 mmol) and the (2E)-2-[(2E,4E)-5-[3,3-dimethyl-5-sulfonato-1-(3-sulfonatopropyl)indol-1-ium-2-yl]penta-2,4-dienylidene]-3-[6-(2,5-dioxopyrrolidin-1-yl)oxy-6-oxo-hexyl]-3-methyl-1-(3-sulfonatopropyl)indoline-5-sulfonate (Potassium Ion (3)) (4.9 mg, 0.0044 mmol) in DMF (44 μL) is added Et3N (5.4 mg, 7.0 μL, 0.053 mmol) at RT. The solution is stirred at room temperature over night, concentrated, dissolved in water and purified on 12 g C-18 silica gel cartridge on Isolera system using acetonitrile in water (0 to 40%, 10 CV) and followed by lyophilization to afford Alexa 647 mannoside probe (3.3 mg, 34%) as deep blue solid.
The Kd values of the compounds are determined from dose response curves using twelve concentrations per compound in duplicate. Curves are fitted to data points using Fluorescence Polarization competitive displacement analysis, and Kds are interpolated from the resulting curves using GraphPad Prism software, version […] (GraphPad software Inc., San Diego, Calif., USA).
In general terms: In fluorescence polarisation assays a small probe gives low polarisation when free and higher when bound to something large.
Regarding `OC[C@H]1O[C@H](c2ccc(-n3cc([C@H]4O[C@H](CO)[C@@H](O)[C@H](O)[C@@H]4O)nn3)cc2)[C@@H](O)[C@@H](O)[C@@H]1O` [Compound 36, ((2R,3S,4R,5S,6R)-2-(Hydroxymethyl)-6-[4-[4-[(2R,3S,4R,5S,6R)-3,4,5-trihydroxy-6-(hydroxymethyl)tetrahydropyran-2-yl]triazol-1-yl]phenyl]tetrahydropyran-3,4,5-triol)], the Kd was 6 nM and 14 nM and < 5 nM. Consider `OC[C@H]1O[C@H](C/C=C/c2ccc(C#Cc3ccc([C@H]4O[C@H](CO)[C@@H](O)[C@H](O)[C@@H]4O)cc3)cc2)[C@@H](O)[C@@H](O)[C@@H]1O` [Compound 34, ((2R,3 S,4R,5S,6R)-2-(Hydroxymethyl)-6-[(E)-3-[4-[2-[4-[(2R,3S,4R,5S,6R)-3,4,5-trihydroxy-6-(hydroxymethyl)tetrahydropyran-2-yl]phenyl]ethynyl]phenyl]allyl]tetrahydropyran-3,4,5-triol)], for which the Kd was < 5 nM and 6 nM.

On to `CC(C)Oc1ccc([C@H]2O[C@H](CO)[C@@H](O)[C@H](O)[C@@H]2O)cc1[C@H]1O[C@H](CO)[C@@H](O)[C@H](O)[C@@H]1O` [Compound 4], for which the Kd is 68 nM and 96 nM. On to `O=C(C[C@H]1O[C@H](CO)[C@@H](O)[C@H](O)[C@@H]1O)Nc1ccc(NC(=O)C[C@H]2O[C@H](CO)[C@@H](O)[C@H](O)[C@@H]2O)cc1` [Compound 43, (2-[(2R,3S,4R,5S,6R)-3,4,5-Trihydroxy-6-(hydroxymethyl)tetrahydropyran-2-yl]-N-[4-[[2-[(2R,3S,4R,5,6R)-3,4,5-trihydroxy-6-(hydroxymethyl)tetrahydropyran-2-yl]acetyl]amino]phenyl]acetamide)], for which the Kd was 20 nM and 27 nM.

For `OC[C@H]1O[C@H](c2ccc(-c3cn([C@H]4O[C@H](CO)[C@@H](O)[C@H](O)[C@@H]4O)nn3)cc2)[C@@H](O)[C@@H](O)[C@@H]1O` [Compound 21, ((2R,3S,4R,5S,6R)-2-(Hydroxymethyl)-6-(4-(1-((2S,3S,4S,5S,6R)-3,4,5-trihydroxy-6-(hydroxymethyl)tetrahydro-2H-pyran-2-yl)-1H-1,2,3-triazol-4-yl)phenyl)tetrahydro-2H-pyran-3,4,5-triol)], the Kd is < 5 nM (2×) and 9 nM. `O=C(NCCCCCCNC(=O)c1cccc([C@H]2O[C@H](CO)[C@@H](O)[C@H](O)[C@@H]2O)c1)c1cccc([C@H]2O[C@H](CO)[C@@H](O)[C@H](O)[C@@H]2O)c1` [Compound 12, (R,R,S,R,S)-N,N′-(Hexane-1,6-diyl)bis(3-((2R,3S,4R,5S,6R)-3,4,5-trihydroxy-6-(hydroxymethyl)tetrahydro-2H-pyran-2-yl)benzamide)]: the Kd is 14 nM and 18 nM. Turning to `O=C(NCCNC(=O)c1cccc([C@H]2O[C@H](CO)[C@@H](O)[C@H](O)[C@@H]2O)c1)c1cccc([C@H]2O[C@H](CO)[C@@H](O)[C@H](O)[C@@H]2O)c1` [Compound 8, (R,R,S,R,S)-N,N′-(Ethane-1,2-diyl)bis(3-((2R,3S,4R,5S,6R)-3,4,5-trihydroxy-6-(hydroxymethyl)tetrahydro-2H-pyran-2-yl)benzamide)], the Kd is 16 nM and 19 nM.

On to `OC[C@H]1O[C@H](Oc2cccc([C@H]3O[C@H](CO)[C@@H](O)[C@H](O)[C@@H]3O)c2)[C@@H](O)[C@@H](O)[C@@H]1O` [Compound 17, ((2R,3S,4R,5S,6R)-2-(Hydroxymethyl)-6-[3-[(2R,3S,4S,5S,6R)-3,4,5-trihydroxy-6-(hydroxymethyl)tetrahydropyran-2-yl]oxyphenyl]tetrahydropyran-3,4,5-triol)], for which the Kd is < 5 nM and 6 nM.

As to `OC[C@H]1O[C@H](c2cc([C@H]3O[C@H](CO)[C@@H](O)[C@H](O)[C@@H]3O)cc(C(F)(F)F)c2)[C@@H](O)[C@@H](O)[C@@H]1O` [Compound 3], the Kd is 51 nM and 40 nM.

Consider `OC[C@H]1O[C@H](n2cc(-c3ccc(-c4cn([C@H]5O[C@H](CO)[C@@H](O)[C@H](O)[C@@H]5O)nn4)cc3)nn2)[C@@H](O)[C@@H](O)[C@@H]1O` [Compound 18, ((2R,3S,4S,5S,6S)-2-(Hydroxymethyl)-6-[4-[4-[1-[(2S,3S,4S,5S,6R)-3,4,5-trihydroxy-6-(hydroxymethyl)tetrahydropyran-2-yl]triazol-4-yl]phenyl]triazol-1-yl]tetrahydropyran-3,4,5-triol)], for which the Kd was 1060 nM and 1020 nM.

`O=C(NCCCCNC(=O)c1cccc([C@H]2O[C@H](CO)[C@@H](O)[C@H](O)[C@@H]2O)c1)c1cccc([C@H]2O[C@H](CO)[C@@H](O)[C@H](O)[C@@H]2O)c1` [Compound 10, (R,R,S,R,S)-N,N′-(Butane-1,4-diyl)bis(3-((2R,3S,4R,5S,6R)-3,4,5-trihydroxy-6-(hydroxymethyl)tetrahydro-2H-pyran-2-yl)benzamide)]: the Kd is 9 nM and 15 nM. With `C#CCN(Cc1cn([C@H]2O[C@H](CO)[C@@H](O)[C@H](O)[C@@H]2O)nn1)Cc1cn([C@H]2O[C@H](CO)[C@@H](O)[C@H](O)[C@@H]2O)nn1` [Compound 20], the Kd is 58 nM and 96 nM. The compound `Cc1cc(/C=C/C[C@H]2O[C@H](CO)[C@@H](O)[C@H](O)[C@@H]2O)cc(C)c1/C=C/C[C@H]1O[C@H](CO)[C@@H](O)[C@H](O)[C@@H]1O` [Compound 31, ((2R,3S,4R,5S,6R)-2-[(E)-3-[3,5-Dimethyl-4-[(E)-3-((2R,3S,4R,5S,6R)-3,4,5-trihydroxy-6-(hydroxymethyl)tetrahydropyran-2-yl]prop-1-enyl]phenyl]allyl]-6-(hydroxymethyl)tetrahydropyran-3,4,5-triol)] returned a Kd of less than 5 nM. In the case of `O=C(Nc1ccc([C@H]2O[C@H](CO)[C@@H](O)[C@H](O)[C@@H]2O)cc1)c1cccc([C@H]2O[C@H](CO)[C@@H](O)[C@H](O)[C@@H]2O)c1` [Compound 39, (3-[(2R,3S,4R,5S,6R)-3,4,5-Trihydroxy-6-(hydroxymethyl)tetrahydropyran-2-yl]-N-[4-[(2R,3S,4R,5S,6R)-3,4,5-trihydroxy-6-(hydroxymethyl)tetrahydropyran-2-yl]phenyl]benzamide)], the Kd is 29 nM and 46 nM. Still for that read-out and setting: for `O=C(Nc1ccc(NC(=O)c2cccc([C@H]3O[C@H](CO)[C@@H](O)[C@H](O)[C@@H]3O)c2)cc1)c1cccc([C@H]2O[C@H](CO)[C@@H](O)[C@H](O)[C@@H]2O)c1` [Compound 7, (3-[(2R,3S,4R,5S,6R)-3,4,5-Trihydroxy-6-(hydroxymethyl)tetrahydropyran-2-yl]-N-[4-[[3-[(2R,3S,4R,5S,6R)-3,4,5-trihydroxy-6-(hydroxymethyl)tetrahydropyran-2-yl]benzoyl]amino]phenyl]benzamide)] the value was 17 nM and 11 nM. Regarding `O=C(NCCCCCCCNC(=O)c1cccc([C@H]2O[C@H](CO)[C@@H](O)[C@H](O)[C@@H]2O)c1)c1cccc([C@H]2O[C@H](CO)[C@@H](O)[C@H](O)[C@@H]2O)c1` [Compound 13, (R,R,S,R,S)-N,N′-(Heptane-1,7-diyl)bis(3-((2R,3S,4R,5S,6R)-3,4,5-trihydroxy-6-(hydroxymethyl)tetrahydro-2H-pyran-2-yl)benzamide)], the Kd is 17 nM and 12 nM. For `O=C(NCCOCCOCCNC(=O)c1cccc([C@H]2O[C@H](CO)[C@@H](O)[C@H](O)[C@@H]2O)c1)c1cccc([C@H]2O[C@H](CO)[C@@H](O)[C@H](O)[C@@H]2O)c1` [Compound 15, (R,R,S,R,S)-N,N′-((Ethane-1,2-diylbis(oxy))bis(ethane-2,1-diyl))bis(3-((2R,3S,4R,5S,6R)-3,4,5-trihydroxy-6-(hydroxymethyl)tetrahydro-2H-pyran-2-yl)benzamide)], the Kd was 11 nM and 15 nM.

Still in this assay, the particulars now being: read-out: Assay 1 Kd, 5 nM Alexa 647 mannoside probe, 60 nM FimH-CRD, replicate values in one cell.
Regarding `Cc1cc(/C=C/C[C@H]2O[C@H](CO)[C@@H](O)[C@H](O)[C@@H]2O)cc(C)c1/C=C/C[C@H]1O[C@H](CO)[C@@H](O)[C@H](O)[C@@H]1O` [Compound 31, ((2R,3S,4R,5S,6R)-2-[(E)-3-[3,5-Dimethyl-4-[(E)-3-((2R,3S,4R,5S,6R)-3,4,5-trihydroxy-6-(hydroxymethyl)tetrahydropyran-2-yl]prop-1-enyl]phenyl]allyl]-6-(hydroxymethyl)tetrahydropyran-3,4,5-triol)], the Kd is less than 5 nM.

By Kd is commonly meant the concentration at which binding is half-saturated.
